Reference: ChEMBL document CHEMBL4261580, “Novel antitumor compound optimized from natural saponin Albiziabioside A induced caspase-dependent apoptosis and ferroptosis as a p53 activator through the mitochondrial pathway” (Eur J Med Chem, 2018)
Activity calls are given as the source filed them. No cut-off for these calls is given here.

Legend:
[1] = system: HepG2; assay: Antiproliferative activity against human HepG2 cells after 72 hrs by MTT assay; type: functional, cell-based; settings: HepG2, 72 h
[2] = Antiproliferative activity against human HBMEC cells after 72 hrs by MTT assay; type: cell-based
[3] = system: L02; assay: Antiproliferative activity against human LO2 cells after 72 hrs by MTT assay; type: cell-based; settings: L02, 72 h
[4] = Antiproliferative activity against human CCD-841 cells after 72 hrs by MTT assay; type: cell-based; settings: CCD-841, 72 h
[5] = system: HaCaT; assay: Antiproliferative activity against human HaCaT cells after 72 hrs by MTT assay; type: cell-based
[6] = system: Bel-7402; assay: Antiproliferative activity against human Bel7402 cells after 72 hrs by MTT assay; type: functional, cell-based; settings: Bel-7402, 72 h
[7] = Antiproliferative activity against adriamycin-resistant human Bel7402/ADR cells after 72 hrs by MTT assay; type: functional; settings: Bel-7402, 72 h
[8] = system: HCT-8; assay: Antiproliferative activity against human HCT8 cells after 72 hrs by MTT assay; type: functional, cell-based; settings: HCT-8, 72 h
[9] = Antiproliferative activity against taxol-resistant human HCT8/T cells after 72 hrs by MTT assay; type: functional; settings: HCT-8, 72 h
[10] = system: HCT-116; assay: Induction of apoptosis in human HCT116 cells assessed as cell shrinkage at 0.31 to 5 uM after 24 hrs by DAPI staining-based fluorescence microscopic method; type: functional
[11] = system: HCT-116; assay: Induction of apoptosis in human HCT116 cells assessed as formation of apoptotic bodies at 0.31 to 5 uM after 24 hrs by DAPI staining-based fluorescence microscopic method; type: functional, cell-based
[12] = system: HCT-116; assay: Induction of apoptosis in human HCT116 cells assessed as necrotic cells at 0.31 uM after 72 hrs by Annexin V-FITC/propidium iodide staining-based flow cytometric analysis (reference value: 0.76%); type: functional
[13] = system: HCT-116; assay: Induction of apoptosis in human HCT116 cells assessed as late apoptotic cells at 0.31 uM after 72 hrs by Annexin V-FITC/propidium iodide staining-based flow cytometric analysis (reference value: 1.08%); type: functional
[14] = system: HCT-116; assay: Induction of apoptosis in human HCT116 cells assessed as early apoptotic cells at 0.31 uM after 72 hrs by Annexin V-FITC/propidium iodide staining-based flow cytometric analysis (reference value: 5.30%); type: functional
[15] = system: HCT-116; assay: Induction of apoptosis in human HCT116 cells assessed as early apoptotic cells at 1.25 uM after 72 hrs by Annexin V-FITC/propidium iodide staining-based flow cytometric analysis (reference value: 5.30%); type: functional
[16] = system: HCT-116; assay: Induction of apoptosis in human HCT116 cells assessed as viable cells at 1.25 uM after 72 hrs by Annexin V-FITC/propidium iodide staining-based flow cytometric analysis (reference value: 92.86%); type: functional; settings: HCT-116, 72 h, read-out: Activity
[17] = system: HCT-116; assay: Induction of apoptosis in human HCT116 cells assessed as early apoptotic cells at 5 uM after 72 hrs by Annexin V-FITC/propidium iodide staining-based flow cytometric analysis (reference value: 5.30%); type: functional
[18] = system: HCT-116; assay: Disruption of mitochondrial membrane potential in human HCT116 cells assessed as intact mitochondrial membrane at 0.31 uM after 72 hrs by JC1 staining-based flow cytometry method (reference value: 0.33%); type: functional
[19] = system: HCT-116; assay: Disruption of mitochondrial membrane potential in human HCT116 cells assessed as collapse of mitochondrial membrane potential at 0.31 uM after 72 hrs by JC1 staining-based flow cytometry method (reference value: […]); type: functional
[20] = system: HCT-116; assay: Disruption of mitochondrial membrane potential in human HCT116 cells assessed as intact mitochondrial membrane at 1.25 uM after 72 hrs by JC1 staining-based flow cytometry method (reference value: 0.33%); type: functional
[21] = system: HCT-116; assay: Disruption of mitochondrial membrane potential in human HCT116 cells assessed as intact mitochondrial membrane at 5 uM after 72 hrs by JC1 staining-based flow cytometry method (reference value: 0.33%); type: functional
[22] = system: HCT-116; assay: Induction of intracellular ROS generation in human HCT116 cells at 1.25 uM after 72 hrs by DCF-DA-dye based fluorescence microscopy (reference value: 2.74%); type: functional
[23] = biological target: Cellular tumor antigen p53 (Homo sapiens) (UniProt P04637); assay: Activation of p53 in human HCT116 cells assessed as upregulation of p53 expression after 48 hrs by Western blot analysis; type: cell-based
[24] = biological target: Cellular tumor antigen p53 (Homo sapiens) (UniProt P04637); assay: Activation of p53 in human HCT116 cells assessed as increase in cytochrome-c expression up to 5 uM after 48 hrs by Western blot analysis; type: cell-based
[25] = biological target: Cellular tumor antigen p53 (Homo sapiens) (UniProt P04637); assay: Activation of p53 in human HCT116 cells assessed as increase in caspase-9 level up to 5 uM after 48 hrs by Western blot analysis; type: cell-based
[26] = system: HCT-116; assay: Cytotoxicity against human HCT116 cells transfected with p53-siRNA up to 5 uM after 72 hrs by MTT assay; type: functional, cell-based
[27] = system: HCT-116; assay: Cytotoxicity against human HCT116 cells pretreated with ferrostatin-1 followed by compound addition up to 5 uM measured after 72 hrs by MTT assay; type: functional, cell-based
[28] = system: HCT-116; assay: Cytotoxicity in human HCT116 cells pretreated with DFO followed by compound addition up to 5 uM measured after 72 hrs by MTT assay; type: functional, cell-based
[29] = system: HCT-116; assay: Cytotoxicity in human HCT116 cells pretreated with Fe2+ followed by compound addition up to 5 uM measured after 72 hrs by MTT assay; type: functional, cell-based
[30] = system: HCT-116; assay: Cytotoxicity in human HCT116 cells pretreated with Fe3+ followed by compound addition up to 5 uM measured after 72 hrs by MTT assay; type: functional, cell-based
[31] = system: HCT-116; assay: Cytotoxicity against human HCT116 cells pretreated with Na+ followed by compound addition up to 5 uM measured after 72 hrs by MTT assay; type: functional, cell-based
[32] = system: HCT-116; assay: Cytotoxicity against human HCT116 cells pretreated with Mg2+ followed by compound addition up to 5 uM measured after 72 hrs by MTT assay; type: functional, cell-based
[33] = system: HCT-116; assay: Cytotoxicity against human HCT116 cells pretreated with Cu2+ followed by compound addition up to 5 uM measured after 72 hrs by MTT assay; type: functional, cell-based
[34] = system: HCT-116; assay: Cytotoxicity against human HCT116 cells pretreated with Mn2+ followed by compound addition up to 5 uM measured after 72 hrs by MTT assay; type: functional, cell-based
[35] = system: HCT-116; assay: Induction of ferroptosis in human HCT116 cells assessed as downregulation of GPX4 expression after 48 hrs by Western blot analysis; type: functional, cell-based
[36] = system: HCT-116; assay: Induction of lipid peroxidation in human HCT116 cells assessed as increase in MDA levels up to 5 uM; type: functional
[37] = system: HCT-116; assay: Antitumor activity against human HCT116 cells xenografted in BALB/c nude mouse assessed as decrease in tumor size at 20 mg/kg, iv administered once per day for 14 days and measured every 2 days; type: functional; design: scale not given: the % may be the effect or the level left
[38] = system: HCT-116; assay: Antitumor activity against human HCT116 cells xenografted in BALB/c nude mouse assessed as decrease in tumor weight at 20 mg/kg, iv administered once per day for 14 days and measured every 2 days; type: functional; design: scale not given: the % may be the effect or the level left
[39] = system: Mus musculus; assay: Toxicity in BALB/c nude mouse xenografted with human HCT116 cells assessed as change in body weight at 10 to 20 mg/kg, iv administered once per day for 14 days and measured every 2 days; type: organism-based; settings: in vivo
[40] = system: PC-3; assay: Antiproliferative activity against p53 deficient human PC3 cells at 0.31 to 5 uM after 72 hrs by MTT assay; type: functional, cell-based

Cellular tumor antigen p53 (Homo sapiens), sequence (P04637 whole entry, looked up): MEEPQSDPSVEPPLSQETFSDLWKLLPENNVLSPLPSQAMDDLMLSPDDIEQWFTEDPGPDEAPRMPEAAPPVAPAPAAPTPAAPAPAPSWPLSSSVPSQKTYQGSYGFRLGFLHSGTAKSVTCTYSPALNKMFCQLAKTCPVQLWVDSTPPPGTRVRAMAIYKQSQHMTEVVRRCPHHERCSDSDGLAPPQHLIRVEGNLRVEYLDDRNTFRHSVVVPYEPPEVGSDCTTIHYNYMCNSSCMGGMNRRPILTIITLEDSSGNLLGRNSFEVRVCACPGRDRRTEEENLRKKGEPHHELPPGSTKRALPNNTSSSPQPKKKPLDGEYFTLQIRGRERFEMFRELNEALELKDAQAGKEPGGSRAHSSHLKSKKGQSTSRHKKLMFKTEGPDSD

CC(=O)N[C@H]1[C@H](O[C@H]2CC[C@]3(C)[C@H]4CC=C5[C@@H]6CC(C)(C)CC[C@]6(C(=O)OCc6cn(-c7cccc(C(C)=O)c7)nn6)CC[C@@]5(C)[C@]4(C)CC[C@H]3C2(C)C)O[C@H](CO[C@@H]2OC[C@H](O)[C@H](O)[C@@H]2O)[C@@H](O)[C@@H]1O
IC50 [1]: 6.5 µM
IC50 [2]: 32.2 µM
IC50 [3]: 33.2 µM
IC50 [4]: 27.8 µM
IC50 [5]: 37.1 µM
IC50 [6]: 5.21 µM
IC50 [7]: 5.83 µM
IC50 [8]: 6.78 µM
IC50 [9]: 6.05 µM
Activity [10]: Active
Activity [11]: Active
Activity [12]: 2.62%
Activity [13]: 12.51%
Activity [14]: 5.94%
Activity [15]: 3.42%
viability at 1.25 µM [16]: 65.1%
Activity [17]: 39.27%
Activity [18]: 10.97%
Activity [19]: 89.03%
Activity [20]: 22.64%
Activity [21]: 40.13%
Activity [22]: 20.35%
Activity [23]: Dose-dependent effect
Activity [24]: Active
Activity [25]: Active
Activity [26]: inactive
Activity [27]: inactive
Activity [28]: inactive
Activity [29]: Active
Activity [30]: Active
Activity [31]: Active
Activity [32]: Active
Activity [33]: Active
Activity [34]: Active
Activity [35]: Dose-dependent effect
fold change (FC) [36]: >2
Activity [37]: 71.8%
Activity [38]: 71.8%
Activity [39]: Non-Toxic
Activity [40]: inactive
